Source: US8669072B2, “Oxadiazoline ligands for modulating the expression of exogenous genes via an ecdysone receptor complex” (Intrexon Corporation, priority 2003, dated 2014)
Read-outs that look alike come from different tables or passages of the source.

Key:
[1] = target: T1, GAL4 DBD-CfEcR(DEF)/VP16AD-MmRXRE (Choristoneura fumiferana, UniProt O77240); test: 13B3 assay: luciferase reporter gene induction in stable CHO clone 13B3; type: cell-based; details: 48 h; for fold induction at 33.3 µM: read-out: Fold Induction Average, 13B3 assay
T1 construct: The wild-type D, E, and F domains from spruce budworm Choristoneura fumiferana EcR (“CfEcR-DEF”)
Outline: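 Stable CHO clone 13B3 co-expressing GAL4 DBD-CfEcR(DEF) and VP16AD-MmRXRE with a GAL4 RE-luciferase reporter; ligands from DMSO stocks diluted 300-fold. Luciferase read by luminescence 48 h after treatment, duplicate wells averaged. Fold induction = RLU treated/RLU DMSO; EC50 from three-parameter logistic fit.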

Bombyx mori EcR (VBE) = target: T2, Bombyx mori EcR (VBE) (Bombyx mori, UniProt P49881); test: Z3 assay: β-galactosidase reporter gene induction in HEK-293 clone Z3 (CVBE / 6XEcRE LacZ); type: cell-based; details: for fold induction at 33 µM: read-out: Fold Induction Average, Z3 assay
T2 construct: expressed in transfected cells; host or cells: Human HEK-293 cells, retrovirally infected, clone Z3
T2 sequence (P49881 86-606 limits assumed): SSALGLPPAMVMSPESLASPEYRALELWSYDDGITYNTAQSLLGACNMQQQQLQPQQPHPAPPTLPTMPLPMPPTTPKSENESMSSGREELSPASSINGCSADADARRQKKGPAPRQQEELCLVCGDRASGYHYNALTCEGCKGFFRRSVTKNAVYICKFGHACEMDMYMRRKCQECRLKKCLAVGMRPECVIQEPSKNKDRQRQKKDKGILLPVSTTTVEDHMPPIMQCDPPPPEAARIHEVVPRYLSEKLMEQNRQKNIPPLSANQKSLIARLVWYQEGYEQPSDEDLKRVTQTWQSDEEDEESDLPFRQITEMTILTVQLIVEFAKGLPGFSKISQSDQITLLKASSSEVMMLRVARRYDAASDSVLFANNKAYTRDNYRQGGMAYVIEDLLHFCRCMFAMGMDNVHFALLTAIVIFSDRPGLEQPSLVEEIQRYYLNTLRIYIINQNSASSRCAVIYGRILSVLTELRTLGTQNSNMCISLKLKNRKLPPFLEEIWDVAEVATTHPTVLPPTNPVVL
T2 sequence (P19793 1-462 partner): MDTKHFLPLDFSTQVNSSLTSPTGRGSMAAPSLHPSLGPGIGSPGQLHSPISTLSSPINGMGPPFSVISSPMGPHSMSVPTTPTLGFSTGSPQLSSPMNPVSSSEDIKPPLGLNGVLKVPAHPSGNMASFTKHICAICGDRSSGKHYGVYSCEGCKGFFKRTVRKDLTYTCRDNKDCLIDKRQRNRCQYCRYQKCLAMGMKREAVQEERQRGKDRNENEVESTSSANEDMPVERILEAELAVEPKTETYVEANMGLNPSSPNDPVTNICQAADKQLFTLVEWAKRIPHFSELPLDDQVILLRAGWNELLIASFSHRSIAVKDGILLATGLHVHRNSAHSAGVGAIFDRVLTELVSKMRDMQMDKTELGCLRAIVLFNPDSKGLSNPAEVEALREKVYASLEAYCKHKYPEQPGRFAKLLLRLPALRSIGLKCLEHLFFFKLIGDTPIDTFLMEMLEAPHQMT

[2] = target: CfEcR (CDEF)/CfUSP, GST fusion protein (Choristoneura fumiferana, UniProt O77240); test: CfEcR (CDEF)/CfUSP GST fusion protein assay; type: binding
WFN (white fly) = test: Insect toxicity contact bioassay, WFN; type: in vivo
Protocol: (§1) The compound to be evaluated was dissolved in an appropriate solvent, usually a mix of acetone, methanol, and water. Test solutions were made by serial dilution of a stock test solution with acetone, methanol, and water. Initial evaluations were made at one or more concentrations on one or more of the following insects:
(§2) Contact bioassays (green peach aphid, two-spotted spider mite, white fly) were conducted by applying a solution of the test compound to the inside surface of a Petri dish. The solution was allowed to air-dry, then each dish was infested and the larvae from each treatment were transferred to a bioassay tray. The trays were held for one to seven days, and the mortality rating was determined for each treatment.

[3] = target: T3, GAL4 DBD (1-147)-CfEcR(DEF)/VP16AD-βRXREF-LmUSPEF (Choristoneura fumiferana, UniProt O77240); test: cell-based; details: for fold induction at 33.3 µM: 48 h, read-out: Fold Induction Average, 27-63 assay; for Rel Max FI, 27-63 assay: maximum fold induction relative to that of GS-E ligand
T3 construct: The wild-type D, E, and F domains from spruce budworm Choristoneura fumiferana EcR (“CfEcR-DEF”)
Protocol: Stably transfected cells were selected by Zeocin resistance. Individually isolated CHO cell clones were transiently transfected with a GAL4 RE-luciferase reporter (pFR Luc). 27-63 clone was selected using Hygromycin.
Cells were trypsinized and diluted to a concentration of 2.5×10^4 cells mL. 100 μL of cell suspension was placed in each well of a 96 well plate and incubated at 37° C. under 5% CO2 for 24 h. Ligand stock solutions were prepared in DMSO and diluted 300 fold for all treatments.
Luciferase reporter gene expression was measured 48 h after cell treatment using Bright-Glo™ Luciferase Assay System from Promega (E2650). Luminescence was detected at room temperature using a Dynex MLX microtiter plate luminometer.
Each assay was conducted in two separate wells, and the two values were averaged. Fold inductions were calculated by dividing relative light units (“RLU”) in ligand treated cells with RLU in DMSO treated cells. EC50s were calculated from dose response data using a three-parameter logistic model.

Tobacco Budworm = test: Insect toxicity bioassay, TBW; type: in vivo
Protocol: as §1
(§3) Feeding bioassays were conducted in bioassay trays containing insect diet. Treatments were made by applying 50 μL of test solution to the surface of the diet in each of 5 wells. After the test solution dried, each well was infested with a single neonate larva. The trays were held for six days and then the mortality rating was determined for each treatment.
Some of the tobacco budworm tests were conducted as follows. A test solution containing 600 ppm was made by dissolving a compound of the invention in a 1:1 acetone:methanol solution, then adding water to give a 5:5:90 acetone:methanol:water solution, and finally a surfactant was added at an equivalent of 7.37 g of surfactant per 100 L of test solution (1 ounce of surfactant per 100 gallons of test solution). Appropriate dilutions were prepared in water from the 600 ppm solution. A detached cotton leaf, Gossypium hirsutum was placed on moistened filter paper in a Petri dish (100×20 mms). The leaf was sprayed with the test solution using a rotating turntable sprayer and allowed to dry. The dish was infested with 10 first instar larvae of the tobacco budworm and covered with the lid. If the larvae were alive two days after treatment, fresh untreated cotton leaves were added. All treatments were maintained at 23.9-26.7° C. (75-80° F.) under fluorescent light in a well-ventilated room. Percent mortality was determined at four days after treatment.

Cabbage Looper = test: Insect toxicity feeding bioassay, CL; type: in vivo
Protocol: as §1, §3

Beet Armyworm = test: Insect toxicity feeding bioassay, BAW; type: in vivo
Protocol: as §1, §3

[4] = test system: MTA (two-spotted spider mite); test: Insect toxicity contact bioassay, MTA; type: in vivo
Protocol: as §1, §2

[5] = 33/33.3 μM ligand, RLU relative to DMSO
[6] = 33 μM ligand, 48 h, RLU relative to DMSO

CfEcR (CDEF)/CfUSP, GST fusion protein, sequence (O77240 entry or part of it): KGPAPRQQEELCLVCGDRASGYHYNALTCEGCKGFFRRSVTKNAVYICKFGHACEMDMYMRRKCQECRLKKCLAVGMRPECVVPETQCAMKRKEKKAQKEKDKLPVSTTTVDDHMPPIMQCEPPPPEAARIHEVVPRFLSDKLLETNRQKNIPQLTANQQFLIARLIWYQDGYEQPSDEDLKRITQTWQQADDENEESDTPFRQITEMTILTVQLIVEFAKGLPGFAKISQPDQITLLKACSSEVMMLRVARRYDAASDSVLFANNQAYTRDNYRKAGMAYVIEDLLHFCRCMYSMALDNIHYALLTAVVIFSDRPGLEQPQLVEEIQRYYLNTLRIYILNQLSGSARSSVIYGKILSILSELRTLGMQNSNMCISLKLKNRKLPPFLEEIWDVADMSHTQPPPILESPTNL
CfEcR (CDEF)/CfUSP, GST fusion protein, sequence (O76202 whole entry, further chain, the tested form may be a part): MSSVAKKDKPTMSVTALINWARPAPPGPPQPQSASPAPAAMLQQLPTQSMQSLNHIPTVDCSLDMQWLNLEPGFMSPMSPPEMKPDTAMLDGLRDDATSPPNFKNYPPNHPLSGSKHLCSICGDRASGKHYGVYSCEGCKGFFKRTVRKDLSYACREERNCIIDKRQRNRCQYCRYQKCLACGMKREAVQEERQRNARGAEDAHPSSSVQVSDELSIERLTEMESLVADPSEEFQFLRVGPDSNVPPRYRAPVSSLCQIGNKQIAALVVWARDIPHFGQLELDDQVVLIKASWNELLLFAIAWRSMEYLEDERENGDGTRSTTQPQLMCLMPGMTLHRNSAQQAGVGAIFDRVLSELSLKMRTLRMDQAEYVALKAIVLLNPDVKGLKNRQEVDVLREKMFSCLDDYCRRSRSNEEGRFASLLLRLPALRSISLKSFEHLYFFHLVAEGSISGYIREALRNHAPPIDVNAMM

Row | SMILES | Fold Induction Average, Z3 assay (Bombyx mori EcR (VBE); [6]) | Insect Toxicity % control @ 150 ppm, WFN (WFN (white fly)) [% @ 150] | EC50 [3] [µM] | fold induction at 33.3 µM [3] | Rel Max FI, 27-63 assay [3] | Insect Toxicity % control @ 150 ppm, TBW (Tobacco Budworm) [% @ 150] | Insect Toxicity % control @ 150 ppm, CL (Cabbage Looper) [% @ 150] | Insect Toxicity % control @ 150 ppm, BAW (Beet Armyworm) [% @ 150] | Insect Toxicity % control @ 150 ppm, MTA [4] [% @ 150] | other results
1 | Cc1cc(C)cc(C2=NOC3(CCCC3)N2NC(=O)c2cc3ccccc3s2)c1 [RG-120152] | 59.9 | – | – | – | – | – | – | – | – | Fold Induction Average, 13B3 assay [1, 5]: 264.3; CfEcR % @ 1 uM [2]: 92% @ 1 uM
2 | CCc1c(OC)cccc1C(=O)NN1C(c2cc(C)cc(C)c2)=NOC12CCOCC2 [RG-120008] | 567.3 | – | – | – | – | – | – | – | – | CfEcR % @ 1 uM [2]: 81% @ 1 uM
3 | CCc1c(OC)cccc1C(=O)NN1C(c2ccc(Cl)cc2)=NOC1(C)C [RG-120099] | – | 0 | ~20 | 1330 | 0.64 | 0 | 40 | 100 | 0 | fold induction at 33 µM (Bombyx mori EcR (VBE); HEK293, 48 h): 0.2
4 | CCc1ccc(C(=O)NN2C(c3ccccc3OC)=NOC2(C)C)cc1 [RG-120026] | – | 0 | > 33 | 8.5 | 0 | 0 | 0 | 100 | 40 | fold induction at 33.3 µM [1]: 0.9; fold induction at 33 µM (Bombyx mori EcR (VBE); HEK293, 48 h): 41.1
5 | COc1cccc(C(=O)NN2C(c3cc(C)cc(C)c3)=NOC2(C)C)c1C [RG-120045, N-[3-(3,5-Dimethyl-phenyl)-5,5-dimethyl-[1,2,4]oxadiazol-4-yl]-3-methoxy-2-methyl-benzamide] | – | – | ~20 | 2710 | 1.25 | – | – | – | – | fold induction at 33.3 µM [1, 5]: 1410; fold induction at 33 µM (Bombyx mori EcR (VBE); HEK293, 33 μM ligand, 48 h, RLU relative to DMSO): 276
6 | CCc1c(OC)cccc1C(=O)NN1C(c2ccccc2)=NOC12CCCC2 [RG-120092] | – | – | 7.16 | 2190 | 1.15 | – | – | – | – | Insect Toxicity LC50, WFN (WFN (white fly); in vivo): >150 ppm; Insect Toxicity LC50, TBW (Tobacco Budworm; in vivo): 98 ppm; Insect Toxicity LC50, CL (Cabbage Looper; in vivo): 13 ppm; Insect Toxicity LC50, BAW (Beet Armyworm; in vivo): 47 ppm; Insect Toxicity LC50, MTA ([4]; in vivo): >150 ppm
7 | CC1(C)ON=C(c2cccc(C(F)(F)F)c2)N1NC(=O)Cc1ccccc1 [RG-120021] | 0.7 | 0 | – | – | – | 0 | 0 | 100 | 51 | –
8 | CCC1(C)ON=C(c2cc(C)cc(C)c2)N1NC(=O)c1ccccc1 (centres unmarked) [RG-120039] | – | – | – | – | – | – | – | – | – | EC50 ([2]; GST fusion protein, read-out: CfEcR EC50): 0.203 µM
